# Source: patent publication US20250325527A1, “KIF18A INHIBITION FOR TREATMENT OF CANCER” (AMGEN INC., priority 2022, published 2025)
# Experiments:
# [1] = test system: breast and ovarian cancer cell lines (DNA barcoded human cancer cell lines); experiment: PRISM screen, 5-day cell growth assay of pooled DNA barcoded cancer cell lines; format: cell-based; settings: TP53 MUT cell lines, 5 days
# Method: FIG. 1 is a series of scatter plots of pooled barcoded cancer cell lines treated in a 5-day cell growth assay with DMSO or KIF18Ai C9 (8-point concentration range), relative abundance of unique cell line barcodes was measured to estimate cell viability. KIF18Ai C9 AUC values versus CIN features (whole genome doubling (WGD), ploidy, aneuploidy score (AS)) plus TP53 status in breast and ovarian cancer cell lines (n=58). Scatter plots show KIF18Ai C9 AUC versus CIN features plus TP53 status with mean AUC indicated for each group. Colored cell lines overlap with KIF18Ai C9 sensitivity in nonbarcoded screens. Dotted line indicates AUC value of 0.65. ** p=0.0037, *** p=0.0004 by unpaired t-test.
# To investigate the anti-proliferative effects of KIF18A inhibitors, a PRISM (profiling relative inhibition simultaneously in mixtures) screen was conducted on a panel of DNA barcoded human cancer cell lines. Pooled cancer cell lines were treated with DMSO or increasing concentrations of KIF18A inhibitor, Compound C9, for 5 days, and then cell viability was determined by measuring the abundance for each unique DNA barcode. We divided the cell lines by CIN features (WGD, ploidy, aneuploidy score) and further subdivided them based on TP53 status. In the TP53^MUT cancer cell lines, we observed a significant enrichment for KIF18A inhibitor sensitivity in cell lines that were WGD+ with >2.1 ploidy (55%, 12 of 22 sensitive) relative to WGD− with ≤2.1 ploidy (21%, 4 of 19 sensitive) (p=0.0004).
# [2] = test system: HCC1806 cells; experiment: mitotic duration and fate (slippage) by live-cell timelapse imaging of cells arrested with DMN; format: cell-based
# Method: To define the capacity of KIF18Ai-resistant HCC1806 clonal lines to maintain the mitotic state, we arrested cells indefinitely in mitosis with the Eg5 inhibitor dimethylenastron (DMN) which causes spindle collapse and chronic SAC activation^28,29. We then monitored mitotic slippage by live-cell timelapse imaging.
# Fluorescent cell lines were seeded into either 4-chamber, 35-mm glass-bottom culture dishes (Greiner), 4-well chamber slides (Ibidi), or 8-well chamber slides (Ibidi). The day of the experiment, cells were transferred to CO2-independent base medium (ThermoFischer) with the appropriate additives for each cell line and maintained at 37° C. in an environmental control station. Long-term time-lapse imaging was performed using a Deltavision Elite system (GE Healthcare) controlling a Scientific CMOS camera (pco.edge 5.5.). Images were acquired with an Olympus 40×1.4 NA oil objective. For general mitotic phenotypes, cells were treated as indicated, then images were captured every 5 min in 9×3 μm z-sections in respective fluorescent channels and by differential inference contrast. For CyclinB1-EYFP experiments, cells were treated as indicated, then images were captured every 2.5 min in 9×3 μm z-sections in respective fluorescent channels and by differential inference contrast. Phenotypic evaluation and intensity measurements were taken from maximum intensity projected 2D time-lapse images. Mitotic duration was calculated as the time taken from nuclear envelope breakdown to the onset of anaphase. Metaphase to anaphase duration was calculated as the time from the appearance of the last, uninterrupted metaphase plate to the onset of anaphase. Analysis of Cyclin B1-EYFP mitotic intensity was measured from NEBD through 30 min past anaphase using FIJI. Intensity traces were manually aligned to the metaphase to anaphase inflection point, then normalized in R. If traces never inflected, they were aligned to 30 min past NEBD.
# [3] = test system: HCC1806 cells; experiment: 5-day MTT endpoint viability assay, HCC1806
# Method: The following day, drugs were added as indicated and cells were cultured for 5 days. […] 100 μL 10% SDS, 0.01M HCl solution was then added to each well to dissolve the formazan crystals. Absorbance was measured with a spectrophotometer at 570 nm. % Viability=(Signal[sample]−Signal[DMN])/(Signal [DMSO]−Signal [DMN])×100 unless specifically noted. % Toxicity=100%−Viability. % Viability rescue=(Signal [sample, KIF18Ai]−Signal[WT, KIF18Ai])/(Signal[WT, DMSO]−Signal [WT, KIF18Ai])×100. Drug titration curves were derived using the equation for “[Inhibitor] vs. response−Variable slope (four-parameter)” in GraphPad Prism 7 for Mac OS X (GraphPad Software, La Jolla, USA).
# [4] = test system: panel of sensitive and insensitive cell lines (RPE1, MCF10A, HCT116, DLD1, MCF7, MDA-MB-157, HCC1806, HeLa, OVCAR-3, OVCAR-8); experiment: 5-day MTT endpoint viability assay, cell line panel; format: cell-based; settings: sensitive cell lines co-treated with KIF18Ai and low doses of Reversine (30 nM, FIG. 9E)
# From the text: To investigate the determinants of KIF18A dependency in cancer, we used AM-1882, a highly specific small molecule KIF18A inhibitor (KIF18Ai) developed by Amgen Inc^21,23. Treatment with KIF18Ai causes stable binding of the KIF18A motor domain to microtubules^23, leading to the relocation of KIF18A in mitosis from kinetochores to spindle poles in all the cell lines tested (FIG. 8a and FIG. 15a). This mis-localization phenocopies the effect of KIF18A loss^21, likely by blocking KIF18A-induced stabilization of microtubule plus ends^16. We examined the effect of KIF18Ai on cell viability using a 5-day endpoint assay performed with non-transformed cells (RPE1 and MCF10A) and a panel of colon (HCT116, DLD1), breast (MCF7, MDA-MB-157, HCC1806), and ovarian (HeLa, OVCAR-3, OVCAR-8) cancer cell lines (FIG. 8b,c and FIG. 15b).
compound,measurement,setting,value
"CC(C)(C)NS(=O)(=O)c1cccc(NC(=O)c2ccc(S(=O)(=O)NC(C)(C)C)cc2N2CCC3(CC2)CC3)c1 [Compound C9, 4-(N-(tert-butyl)sulfamoyl)-N-(3-(N-(tert-butyl)sulfamoyl)phenyl)-2-(6-azaspiro[2.5]octan-6-yl)benzamide]",cell lines sensitive to KIF18A inhibitor,[1]; WGD+ with >2.1 ploidy (12 of 22 sensitive),55%
same,cell lines sensitive to KIF18A inhibitor,[1]; WGD− with ≤2.1 ploidy (4 of 19 sensitive),21%
same,cell lines sensitive to KIF18A inhibitor,[1]; aneuploidy score >8 (16 of 34 sensitive),47%
same,cell lines sensitive to KIF18A inhibitor,[1]; aneuploidy score ≤8 (0 of 7 sensitive),0%
"CC1(C)CC(=O)C2=C(C1)NC(=S)NC2c1cccc(O)c1 (stereo not drawn) [DMN, dimethylenastron]",slippage rate,[2]; Cyclin B1 knockout HCC1806,93%
same,time spent in mitosis,[2]; Cyclin B1 knockout HCC1806,11 h
same,rate of mitotic slippage,[2]; HSET knockout HCC1806,27%
same,time in mitosis,[2]; HSET knockout HCC1806,19 h
same,cell death,[2]; WT HCC1806,75%
same,mitotic slippage,[2]; WT HCC1806,25%
same,time in mitosis (average),[2]; WT HCC1806,25 h
same,rate of mitotic slippage,[2]; hypomorphic MAD1 HCC1806,95%
same,time in mitosis,[2]; hypomorphic MAD1 HCC1806,23 h
O=C1NC(=NCc2cccs2)S/C1=C\c1ccc2ncccc2c1 [RO-3306],rescue of viability in KIF18Ai-treated cells,[3]; sub-saturating concentrations of RO-3306,robust rescue of viability
c1nc2nc(Nc3ccc(N4CCOCC4)cc3)nc(NC3CCCCC3)c2[nH]1 [Reversine],rescue of KIF18Ai toxicity,[4],rescued KIF18Ai toxicity
same,time to exit mitosis (all cells),"[2]; SAC function abolished with Reversine, compared with DMN arrest",less than an hour
same,effect on cells,[3]; higher concentrations of Reversine,toxic to cells
same,rescue of KIF18Ai toxicity,"[3]; low doses of Reversine, WT and UBE2S overexpressing HCC1806 treated with KIF18Ai",potent rescue of KIF18Ai toxicity
